This note sets out measurements from patent publication US20230203095A1, “BIOLOGICAL PEPTIDE FOR TREATING LUNG DISEASES AND APPLICATION THEREOF” (SHANGHAI INSTITUTE OF PHARMACEUTICAL INDUSTRY CO., LTD., priority 2019, published 2023).

Series [1] concerns OVA-induced asthma model mice. Nature of the series: Lung pathology (H&E) of OVA-induced asthma model mice. Type of series: in vivo, BALB/c mice. The conditions noted are these: positive control group (dexamethasone 2 mg/kg body weight/day), after 28 days. As for the experimental part: (§1) The first batch: mice were divided into groups, 10 mice in each group, namely: blank control group (normal saline), model group (OVA, 20 ug/mouse), SP peptide group (administered dose of 175 µg/kg body weight/day, 350 µg/kg body weight/day, respectively), SIPI-D00 peptide group (administered dose of 175 µg/kg body weight/day, 350 µg/kg body weight/day), and dexamethasone group (administered dose of 2 mg/kg body weight/day).
(§2) Mice in the model group, SP peptide group, SIPI-D00 peptide group and dexamethasone group were sensitized by intraperitoneal injection of OVA (20 µg OVA/mice) on day 0, 7, and 14, and challenged by aerosol administration of OVA (once a day for 5 consecutive days) on day 21-25 to construct asthmatic model animals. Mice in the model group were given normal saline on days 21-28; mice in different doses of SP peptide group and SIPI-D00 peptide group were injected subcutaneously with different doses of SP and SIPI-D00 on days 19-28; mice in dexamethasone group were injected intraperitoneally with 2 mg/kg/day dexamethasone on days 21-28. At the same time, 10 mice in the blank control group were fed normally from day 0 to day 28 without any treatment, and were given normal saline as a blank control.
After 28 days, the mouse lung tissue was taken out, fixed in 4% formaldehyde, embedded in paraffin, sectioned, and stained with H&E for pathological observation.
The first batch: mice were divided into groups, 10 mice in each group, namely: blank control group (normal saline), model group (OVA, 20 ug/mice), and SP peptide group (administered dose of 175 µg/kg body weight/day, 350 µg/kg body weight/day, respectively), SIPI-G5 peptide group (administered dose of 175 µg/kg body weight/day, 350 µg/kg body weight/day), dexamethasone group (administered dose of 2 mg/kg body weight/day).
(§3) At the same time, 10 mice in the blank control group were fed normally from day 0 to day 28 without any treatment, and were given normal saline as a blank control.

Series [2] deals with OVA-induced asthma model mice. Nature of the series: Lung function (inspiratory airway resistance, lung compliance) in OVA-induced allergic asthma model mice. Type of series: in vivo, BALB/c mice. As to conditions: for Inspiratory airway resistance / Lung compliance: 2 mg/kg/day i.p., n=10. As for the experimental part: The second batch: mice were divided into groups, 10 mice in each group, namely: blank control group (normal saline), model group (OVA, dose of 20 ug/mouse), SP peptide group (administered dose of 87.5 µg/kg body weight/ day, 175 µg/kg body weight/day, 350 µg/kg body weight/day, respectively), SIPI-D00 peptide group (administered dose of 87.5 µg/kg body weight/day, 175 µg/kg body weight/day, 350 µg/kg body weight/day), and Dexamethasone group (administered dose of 2 mg/kg body weight/day).
as §2
On the 28th day, the mice were anesthetized with tracheal intubation and jugular vein intubation, and the inspiratory airway resistance and lung compliance were measured in each group of animals. Each animal was given fold increasing amounts of methacholine via the jugular vein: 0.025 mg/kg, 0.05 mg/kg, 0.1 mg/kg, 0.2 mg/kg. After each dose was given, the lung compliance curve was recorded continuously for 5 minutes, and the inspiratory airway resistance and lung compliance were calculated. […]
as §3

For the next series, the system named is serum IgE. The experiment in a line: Serum IgE level in OVA-induced allergic asthma model mice. Type of series: in vivo, BALB/c mice. As to conditions: 2 mg/kg/day intraperitoneal, days 21-28, n=10. As for the experimental part: as §1
OVA for sensitization was dissolved in sterile PBS solution at a final concentration of 0.2 mg/mL, then an equal volume of aluminum hydroxide adjuvant was added. After shaking for 30 minutes, each mouse was intraperitoneally injected with 0.2 mL (20 µg OVA per mouse).
2% OVA solution was prepared in sterile PBS. The 2% OVA was nebulized with a nebulizer, and the mice were placed in the nebulizer inhalation box for 30 minutes per day.
According to the dosage, SP peptide and SIPI-D00 were dissolved in normal saline respectively, and administered by subcutaneous administration on the back according to the body weight of the animals.
as §2
After 28 days, blood was collected from the inner canthus of the mouse, and the serum was collected, and the IgE level in the serum was measured with an ELISA kit. […]
as §3

The nature of series [3]: Stability of each 7-peptide compound in rat whole blood. It counts as in vitro ADME. The conditions noted are these: for stability in whole blood: compared with SP peptide; for recovery: rat whole blood, 37° C., 1000 ng/mL, read-out: Recovery rate (%) M±SD. As for the experimental part:
Preparation of the test product: SP and SIPI-D00 were dissolved and diluted with an appropriate amount of 50% acetonitrile water containing 0.1% formic acid to obtain a working solution with a concentration of 200 µg/mL.
• 1) Fresh rat whole blood was added to the EP tube, and shaken gently to mix well; • 2) The EP tube was pre-incubated in a 37° C. water bath for 5 minutes; • 3) Each compound was added to start the reaction and continued to incubate at 37° C.; • 4) 50 µL sample was taken from the sample tube at 0, 2 min, 5 min, 10 min, 30 min, and 60 min, respectively, into the stop tube, 50 µL of ice-cold 7% perchloric acid was added, and shaken to stop the reaction; • 5) Sample was centrifuged at 13000 r/min for 10 min, 75 µL supernatant was aspirated, 60 µL1.25% ammonia water was added and mixed well. After filtered with […] microporous membrane, 20 µL sample was taken for LC-MS/MS analysis.

Read-outs that look alike come from different tables or passages of the source. Peptide text beside a SMILES is read from it. * marks the point of attachment. X1 = CC(=O)N[C@H]1C(*)O[C@H](CO)[C@@H](O)[C@@H]1O

Regarding `C[C@@H]1C[C@H]2[C@@H]3CCC4=CC(=O)C=C[C@]4(C)[C@@]3(F)[C@@H](O)C[C@]2(C)[C@@]1(O)C(=O)COP(=O)([O-])[O-].[Na+].[Na+]` [Dexamethasone, dexamethasone sodium phosphate, reference compound], the “lung pathology, H&E” value in series [1] was “a small amount of inflammatory cell infiltration in the lungs, but the alveolar cavity is seriously damaged”. The Inspiratory airway resistance came out at 1.00±0.00 in series [2] (methacholine 0 mg/kg); 1.06±0.08 in series [2] (methacholine 0.025 mg/kg); 1.15±0.14 in series [2] (methacholine 0.05 mg/kg); 1.20±0.21 in series [2] (methacholine 0.1 mg/kg); 1.23±0.17 in series [2] (methacholine 0.2 mg/kg). Moreover, the Lung compliance in series [2] (methacholine 0 mg/kg) stood at 1.00±0.00; in series [2] (methacholine 0.025 mg/kg), 0.97±0.10; in series [2] (methacholine 0.05 mg/kg), 0.89±0.14; in series [2] (methacholine 0.1 mg/kg) it was 0.87±0.22; in series [2] (methacholine 0.2 mg/kg), 0.83±0.14. Further, the “inspiratory phase resistance (in words)” value in series [2] (compared with the model group) is “significantly reduced”. Besides, in series [2] (compared with the model group), the “lung compliance (in words)” value is reported as “significantly increased”. Besides, the “Serum IgE level (OD450)” value with serum IgE was found to be 0.285 ± 0.041 OD450.
In the case of `CC(=O)N[C@H]1C(OC[C@H](NC(=O)[C@@H](NC(=O)[C@H](Cc2ccc(O)cc2)NC(=O)[C@@H](NC(=O)[C@H](CCC(N)=O)NC(=O)CN)[C@@H](C)OC2O[C@H](CO)[C@@H](O)[C@H](O)[C@H]2NC(C)=O)[C@@H](C)OC2O[C@H](CO)[C@@H](O)[C@H](O)[C@H]2NC(C)=O)C(=O)NCC(=O)O)O[C@H](CO)[C@@H](O)[C@@H]1O` (some centres unmarked) [SIPI-G4, GQT(Glc)YT(Glc)S(Glc)G] (H-GQT(X1)YT(X1)S(X1)G-OH), the “stability in whole blood” value in series [3] is reported as “significantly higher than that of SP peptide”. Besides, the recovery amounted to 100% in series [3] (incubation time 0 min); 94.6 ± 8.5% in series [3] (incubation time 2 min); 87.3 ± 5.6% in series [3] (incubation time 5 min); 87.2 ± 5.9% in series [3] (incubation time 10 min); 77.7 ± 8.1% in series [3] (incubation time 30 min); 77.1 ± 2.3% in series [3] (incubation time 60 min).
As to `CC(=O)N[C@H]1C(O[C@H](C)[C@H](NC(=O)[C@H](CCC(N)=O)NC(=O)CN)C(=O)N[C@@H](Cc2ccc(O)cc2)C(=O)N[C@H](C(=O)N[C@@H](CO)C(=O)NCC(=O)O)[C@@H](C)O)O[C@H](CO)[C@@H](O)[C@@H]1O` (some centres unmarked) [SIPI-G6, GQT(Glc)YTSG] (H-GQT(X1)YTSG-OH), the “stability in whole blood” value in series [3] is reported as “significantly higher than that of SP peptide”. The recovery in series [3] (incubation time 0 min) came out at 100%; in series [3] (incubation time 2 min) it was 86.1 ± 1.8%; in series [3] (incubation time 5 min), 81.3 ± 8.3%; in series [3] (incubation time 10 min), 73.4 ± 2.6%; in series [3] (incubation time 30 min) it was 59.7 ± 8.8%; in series [3] (incubation time 60 min), 51.1 ± 4.9%.
Consider `CC(=O)N[C@H]1C(O[C@H](C)[C@H](NC(=O)[C@H](Cc2ccc(O)cc2)NC(=O)[C@@H](NC(=O)[C@H](CCC(N)=O)NC(=O)CN)[C@@H](C)OC2O[C@H](CO)[C@@H](O)[C@H](O)[C@H]2NC(C)=O)C(=O)N[C@@H](CO)C(=O)NCC(=O)O)O[C@H](CO)[C@@H](O)[C@@H]1O` (some centres unmarked) [SIPI-G8, GQT(Glc)YT(Glc)SG] (H-GQT(X1)YT(X1)SG-OH), for which, in series [3], the “stability in whole blood” value was “significantly higher than that of SP peptide”. Further, the recovery in series [3] (incubation time 0 min) was found to be 100%; in series [3] (incubation time 2 min) it was 83.6 ± 8.1%; in series [3] (incubation time 5 min) it was 83.2 ± 6.1%; in series [3] (incubation time 10 min), 80.7 ± 2.3%; in series [3] (incubation time 30 min), 71.2 ± 6.3%; in series [3] (incubation time 60 min), 58.6 ± 4.8%.
